Experimental data as given in ChEMBL document CHEMBL1201862, “PubChem BioAssay data set” (2004).
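A five-concentration, 48-hour dose response in 96-well plates underlies each endpoint, interpolated linearly between surrounding concentrations. GI50 is the concentration that inhibits growth by half.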 Active and inactive are the calls of the source. No stated cut-off is given here; in the data, active = GI50 up to about 1.1 µM and inactive = higher.

Assays:
Test in all cases: growth of human tumour cells (NCI), 48 h
HOP-62 = tested on: HOP-62
RXF 393 = tested on: RXF 393
SN12C = tested on: SN12C
COLO 205 = tested on: COLO 205
SR = tested on: SR
CCRF-CEM = tested on: CCRF-CEM
NCI-H460 = tested on: NCI-H460
BT-549 = tested on: BT-549
A498 = tested on: A498
HOP-92 = tested on: HOP-92
IGROV-1 = tested on: IGROV-1
SNB-19 = tested on: SNB-19
RPMI-8226 = tested on: RPMI-8226
OVCAR-5 = tested on: OVCAR-5
A549 = tested on: A549
HCC 2998 = tested on: HCC 2998
SW-620 = tested on: SW-620
LOX IMVI = tested on: LOX IMVI
NCI-H226 = tested on: NCI-H226
KM-20L2 = tested on: KM-20L2

SMILES	GI50 (HOP-62)	GI50 (RXF 393)	GI50 (SN12C)	GI50 (COLO 205)	GI50 (SR)	GI50 (CCRF-CEM)	GI50 (NCI-H460)	GI50 (BT-549)	GI50 (A498)	GI50 (HOP-92)	GI50 (IGROV-1)	GI50 (SNB-19)	GI50 (RPMI-8226)	GI50 (OVCAR-5)	GI50 (A549)	GI50 (HCC 2998)	GI50 (SW-620)	GI50 (LOX IMVI)	GI50 (NCI-H226)	GI50 (KM-20L2)
COC(=O)CC1c2ccccc2N2C(=O)Cc3c([nH]c4ccccc34)C12 (stereo unspecified)	36.5 µM (inactive)	> 100 µM (inactive)	> 100 µM (inactive)	> 100 µM (inactive)	> 100 µM (inactive)	> 100 µM (inactive)	> 100 µM (inactive)	> 100 µM (inactive)	> 100 µM (inactive)	55.8 µM (inactive)	> 100 µM (inactive)	> 100 µM (inactive)	> 100 µM (inactive)	> 100 µM (inactive)	> 100 µM (inactive)	> 100 µM (inactive)	> 100 µM (inactive)	> 100 µM (inactive)	> 100 µM (inactive)	
N#Cc1c(N)nc(Sc2ccccc2N)c(C#N)c1-c1ccc(Cl)cc1	3.7 µM (inactive)	16 µM (inactive)	13.8 µM (inactive)	28.5 µM (inactive)	1 µM (active)	> 27.2 µM (inactive)	9.46 µM (inactive)	4.21 µM (inactive)	2.65 µM (inactive)	15.8 µM (inactive)	5.52 µM (inactive)	14.3 µM (inactive)	2.61 µM (inactive)	27.1 µM (inactive)	9.4 µM (inactive)	9.73 µM (inactive)	> 33.3 µM (inactive)	4.45 µM (inactive)	37.2 µM (inactive)	
C=CCc1c(Cl)nc(Cl)nc1Cl	0.515 µM (active)	0.217 µM (active)	0.258 µM (active)	0.195 µM (active)	< 0.01 µM (active)	< 0.01 µM (active)	0.565 µM (active)	0.0474 µM (active)	1.94 µM (inactive)	0.255 µM (active)	0.323 µM (active)	0.859 µM (active)	0.301 µM (active)	0.678 µM (active)	2.04 µM (inactive)	0.832 µM (active)	0.0495 µM (active)	< 0.0115 µM (active)	0.0421 µM (active)	
O=C1c2c(F)c(F)c(F)c(F)c2SC2=NCCN12	18.1 µM (inactive)	2.47 µM (inactive)	9.25 µM (inactive)	7.23 µM (inactive)	1.15 µM (inactive)	2.39 µM (inactive)	6.53 µM (inactive)	14.8 µM (inactive)	18.4 µM (inactive)	3.78 µM (inactive)	7.19 µM (inactive)	15.3 µM (inactive)	4 µM (inactive)	15.4 µM (inactive)	14.7 µM (inactive)	14.5 µM (inactive)	2.38 µM (inactive)	1.61 µM (inactive)	16.2 µM (inactive)	
COc1cc2oc3ccccc3c(=O)c2cc1CSc1ccccc1N	22.8 µM (inactive)	11 µM (inactive)	46.8 µM (inactive)	15.8 µM (inactive)	5.2 µM (inactive)	4.94 µM (inactive)	15.1 µM (inactive)	29.3 µM (inactive)	17.3 µM (inactive)	35.2 µM (inactive)	12 µM (inactive)	56.5 µM (inactive)	9.46 µM (inactive)	> 81.8 µM (inactive)	23.4 µM (inactive)	5.24 µM (inactive)	6.81 µM (inactive)	29.7 µM (inactive)	73.6 µM (inactive)	
O=C1c2cc3ccccc3cc2C2(c3ccc(Cl)cc3)NCCN12 (stereo unspecified)	32.4 µM (inactive)	21.8 µM (inactive)	49.5 µM (inactive)	17.6 µM (inactive)	29 µM (inactive)	33 µM (inactive)	29.6 µM (inactive)	54 µM (inactive)	77.3 µM (inactive)	34.4 µM (inactive)	27.4 µM (inactive)	24.5 µM (inactive)	29.4 µM (inactive)	21.5 µM (inactive)	28.4 µM (inactive)	21.1 µM (inactive)	50.4 µM (inactive)	21.9 µM (inactive)	34.5 µM (inactive)	
CCCCCCc1cc2cc(C(=O)NCc3ccccc3)c(=N)oc2cc1O	> 100 µM (inactive)	> 100 µM (inactive)	> 100 µM (inactive)	> 100 µM (inactive)	> 100 µM (inactive)	> 100 µM (inactive)	> 100 µM (inactive)	> 100 µM (inactive)	> 100 µM (inactive)	> 100 µM (inactive)	> 100 µM (inactive)	> 100 µM (inactive)	> 100 µM (inactive)	> 100 µM (inactive)	> 100 µM (inactive)	> 100 µM (inactive)	> 100 µM (inactive)	> 100 µM (inactive)	> 100 µM (inactive)	
Cc1ccc2c(=O)cc(-c3cccc(F)c3)[nH]c2n1	0.0655 µM (active)	0.0415 µM (active)	0.0746 µM (active)	0.0224 µM (active)	0.0224 µM (active)	0.0446 µM (active)	0.0356 µM (active)	0.0348 µM (active)	0.052 µM (active)	0.9 µM (active)	0.0755 µM (active)	0.153 µM (active)	0.0397 µM (active)	0.0564 µM (active)	0.0476 µM (active)	0.0586 µM (active)	0.0251 µM (active)	0.0518 µM (active)	0.0336 µM (active)	
Nc1nc(N)c(N=O)c(OCC2CCCCC2)n1	14.6 µM (inactive)	7.1 µM (inactive)	5.15 µM (inactive)	12.3 µM (inactive)	4.76 µM (inactive)	5.36 µM (inactive)	6.17 µM (inactive)	7.82 µM (inactive)	18.1 µM (inactive)	7.83 µM (inactive)	3.23 µM (inactive)	26.8 µM (inactive)	6.52 µM (inactive)	9.71 µM (inactive)	17.8 µM (inactive)	14.9 µM (inactive)	24 µM (inactive)	5.53 µM (inactive)	9.4 µM (inactive)	
O=C1OC(CCCN2CCCCC2)(c2ccccc2)CC12CCCC2 (stereo unspecified)	> 100 µM (inactive)	80 µM (inactive)	> 100 µM (inactive)	32.3 µM (inactive)	34.4 µM (inactive)	54.5 µM (inactive)	89.1 µM (inactive)	> 100 µM (inactive)	57.4 µM (inactive)	2.1 µM (inactive)	> 100 µM (inactive)	> 100 µM (inactive)	50 µM (inactive)	> 87.1 µM (inactive)	> 100 µM (inactive)	66.1 µM (inactive)	> 100 µM (inactive)	> 72.1 µM (inactive)	> 96.6 µM (inactive)	
O=C1C(=O)N(c2ccc(Cl)cc2)C(=O)C(=O)C1c1nc2ccccc2s1	42.7 µM (inactive)	> 100 µM (inactive)	> 100 µM (inactive)	> 100 µM (inactive)			> 100 µM (inactive)			> 100 µM (inactive)	71 µM (inactive)	> 100 µM (inactive)	> 100 µM (inactive)	> 100 µM (inactive)		> 100 µM (inactive)	> 100 µM (inactive)	> 100 µM (inactive)	> 100 µM (inactive)	> 100 µM (inactive)
O=c1[nH]c(=O)n(C2CC(O)C(CO)O2)c2nc3cc4ccccc4cc3nc12 (stereo unspecified)	33.9 µM (inactive)	26.5 µM (inactive)	> 100 µM (inactive)	> 100 µM (inactive)	91.6 µM (inactive)	36.6 µM (inactive)	> 100 µM (inactive)	> 100 µM (inactive)	> 100 µM (inactive)	79.1 µM (inactive)	98.4 µM (inactive)	14.5 µM (inactive)	> 100 µM (inactive)	> 100 µM (inactive)	> 100 µM (inactive)	> 100 µM (inactive)	> 100 µM (inactive)	> 100 µM (inactive)	> 100 µM (inactive)	
CS(=O)(=O)C(=Cc1ccccc1Cl)S(C)(=O)=O	> 100 µM (inactive)	> 100 µM (inactive)	> 100 µM (inactive)	> 100 µM (inactive)	> 100 µM (inactive)	25.5 µM (inactive)	> 100 µM (inactive)	> 100 µM (inactive)	> 100 µM (inactive)	> 100 µM (inactive)	> 100 µM (inactive)	> 100 µM (inactive)	> 100 µM (inactive)	> 100 µM (inactive)	> 100 µM (inactive)	> 100 µM (inactive)	> 66.4 µM (inactive)	> 100 µM (inactive)	> 100 µM (inactive)	
Cn1c(-c2cccs2)cc(-c2cccs2)c1-c1ccco1	> 92 µM (inactive)	27.9 µM (inactive)	> 94.6 µM (inactive)	27.5 µM (inactive)	14.8 µM (inactive)	28.8 µM (inactive)	38.7 µM (inactive)	> 100 µM (inactive)	27.7 µM (inactive)	63 µM (inactive)	> 48.9 µM (inactive)	> 100 µM (inactive)	31 µM (inactive)	> 100 µM (inactive)	50.8 µM (inactive)	26.6 µM (inactive)	50.5 µM (inactive)	22.7 µM (inactive)	> 100 µM (inactive)	
O=C1CCCc2cc3c(cc21)CC1(C3)Cc2cc3c(cc2C1)C(=O)CCC3	2.29 µM (inactive)	1.45 µM (inactive)	4.46 µM (inactive)	1.33 µM (inactive)	0.106 µM (active)	0.998 µM (active)	1.22 µM (inactive)	0.653 µM (active)	5.45 µM (inactive)	6.78 µM (inactive)	1.38 µM (inactive)	4.58 µM (inactive)	0.746 µM (active)	4.54 µM (inactive)	1.39 µM (inactive)	2.34 µM (inactive)	0.815 µM (active)	1.48 µM (inactive)	2.7 µM (inactive)	
